Laboratory results taken from US8394377B2, “Methods for treating cancer using combination therapy” (The Regents of the University of Colorado, priority 2008, dated 2013).

Key:
Format in all cases: cell-based
[1] = Percent viability of treated MCF7 ADR cells (flow cytometry); conditions: human, 5 mg/ml DCA, 0.1 mg/ml Etomoxir, or both, time point (24 or 48 hrs) not given
Protocol: (§1) 1. Cell Culture Conditions: The MCF7 and MCF7 ADR cell lines were purchased from American Type Culture Collection, were thawed, and grown in RPMI 1640 medium supplemented with standard supplements, including 10% fetal calf serum, gentamycin, penicillin, streptomycin, sodium pyruvate, HEPES buffer, 1-glutamine, and 2-ME.
(§2) 2. Methods: Cells were plated into a 12 well plate with 4 mis total volume containing approximately 0.6×10^6/well for MCF7 cells and 0.8×10^6/well for MCF7 ADR cells. Treatment groups included no treatment as control; 5 mg/ml Dichloroacetate; 0.1 mg/ml Etomoxir; Both 5 mg/ml DCA and 0.1 mg/ml Etomoxir.
(§3) The cells were incubated at 37° C. in an atmosphere containing 5% CO2 and approximately 92% humidity. The cells were incubated for 24 and 48 hours. At each time point, the cells from that experimental time were harvested and stained for flow cytometric analysis of cell surface expression of HER-2/neu using anti-human HER-2 Fitc. (BD biosciences, Catalogue #340553).

[2] = Percent viability of treated MCF7 cells (flow cytometry); conditions: human, 5 mg/ml DCA, 0.1 mg/ml Etomoxir, or both, time point (24 or 48 hrs) not given
Protocol: as §1, §2, §3

HER-2 on MCF7 ADR cells = experiment: Cell surface HER-2 expression by flow cytometry with FITC anti-human HER-2
Protocol: as §1, §2, §3
Harvested cells were stained using standard fixed staining procedure that called for a 1:5 dilution of Fitc-anti-human HER-2 or isotype control. […] Samples were acquired and analyzed on a Coulter Excel Flow Cytometer. […]
The results in the Figures are expressed in histogram analyses. The Y axis represents cell number of the 5000 live cells versus the X axis which is a reflection of relative Fitc fluorescence. […]

Row | SMILES | viability [1] [%] | viability [2] [%] | HER-2 expression (HER-2 on MCF7 ADR cells; HER-2 lo/negative MCF7-Adr cells, as shown in the figures) | HER-2 cell surface expression (HER-2 on MCF7 ADR cells; MCF7 ADR cells, 48 hours, 0.1 mg/ml Etomoxir)
1 | O=C(O)C(Cl)Cl [DCA, Dichloroacetate] | 58 | 42 |  | 
2 | CCOC(=O)C1(CCCCCCOc2ccc(Cl)cc2)CO1 (stereo not drawn) [Etomoxir, 2-(6-(4-chlorophenoxy)-hexyl)-oxirane-2-carboxylic acid ethyl ester] | 66 | 78 | major increase | noticeable Increase
